Earlier results in patent US20250049842A1, “THERAPEUTIC BLOOD-ACID-SHIFTING COMPOSITIONS AND METHODS” (priority 2023, published 2025).

Conditions: for pKa (pKa1, first or only dissociation): step (1) HA/A−; for pKa2 (second dissociation): step (2)

Structure (SMILES)	pKa (pKa1, first or only dissociation)	pKa2 (second dissociation)	pKa (third dissociation) (step (3))	pKa (fourth dissociation) (step (4))
O=[N+]([O-])O [Nitric Acid]	< 1	–	–	–
O=S(O)O [Sulfurous Acid]	1.18	6.91	–	–
[O-][Cl+2]([O-])O [Chloric Acid]	< 1	–	–	–
O=NO [Nitrous]	3.39	–	–	–
CC(=O)C(=O)O [Pyruvic Acid]	2.49	–	–	–
[O-][Cl+3]([O-])([O-])O [Perchloric Acid]	< 1	–	–	–
Nc1nc2ncc(CNc3ccc(C(=O)N[C@@H](CCC(=O)O)C(=O)O)cc3)nc2c(=O)[nH]1 [Folic Acid, reference compound]	1.63	2.71	4.68	7.53
